Data as given in patent US6737383B1, “Herbicidal oxadiazolidines” (priority 1999, dated 2004).

How the values were obtained:
[1] = tested on: blackgrass; experiment: Test B pre/postemergence blackgrass; type: in vivo, Alopecurus myosuroides
Procedure, shortened: (§1)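 Herbicidal effect was estimated by eye on a ten-point control scale after plants spent twelve to sixteen days in a greenhouse following soil or foliar treatment. Foliar sprays targeted plants at one to four leaves; all doses were formulated in a non-phytotoxic solvent with surfactant.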

[2] = tested on: sugar beet; experiment: Test B pre/postemergence sugar beet; type: in vivo, Beta vulgaris
Procedure, shortened: as §1

[3] = tested on: wild oat; experiment: Test B pre/postemergence wild oat; type: in vivo, Avena fatua
Procedure, shortened: as §1

[4] = tested on: soybean; experiment: Test B pre/postemergence soybean; type: in vivo, Glycine max
Procedure, shortened: as §1

[5] = tested on: velvetleaf; experiment: Test B pre/postemergence velvetleaf; type: in vivo, Abutilon theophrasti
Procedure, shortened: as §1

[6] = tested on: morningglory; experiment: Test B pre/postemergence morningglory; type: in vivo, Ipomoea hederacea
Procedure, shortened: as §1

[7] = tested on: giant foxtail; experiment: Test B pre/postemergence giant foxtail; type: in vivo, Setaria faberii
Procedure, shortened: as §1

[8] = tested on: cocklebur; experiment: Test B pre/postemergence cocklebur; type: in vivo, Xanthium strumarium
Procedure, shortened: as §1

[9] = tested on: surinam grass; experiment: Test B pre/postemergence surinam grass; type: in vivo, Brachiaria decumbens
Procedure, shortened: as §1

[10] = tested on: rice; experiment: Test B flood test rice; type: in vivo, Oryza sativa
Procedure, shortened: (§2)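 Flood test on plants grown to the 2-leaf stage; treated plants kept in greenhouse twelve to sixteen days, then visually rated against controls on a 0 (no effect) to 10 (complete control) scale.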

[11] = tested on: corn; experiment: Test B pre/postemergence corn; type: in vivo, Zea mays
Procedure, shortened: as §1

[12] = tested on: wheat; experiment: Test B pre/postemergence wheat; type: in vivo, Triticum aestivum
Procedure, shortened: as §1

[13] = tested on: rape; experiment: Test B pre/postemergence rape; type: in vivo, Brassica napus
Procedure, shortened: as §1

[14] = tested on: pigweed; experiment: Test B pre/postemergence pigweed; type: in vivo, Amaranthus retroflexus
Procedure, shortened: as §1

[15] = tested on: smallflower flatsedge; experiment: Test B flood test smallflower flatsedge; type: in vivo, Cyperus difformis
Procedure, shortened: as §2

[16] = tested on: bedstraw; experiment: Test B pre/postemergence bedstraw; type: in vivo, Galium aparine
Procedure, shortened: as §1

[17] = Postemergence, Rate 62 g/ha, scale 0 to 10, 0 is no effect, 10 is complete control
[18] = Postemergence, Rate 250 g/ha, scale 0 to 10, 0 no effect, 10 complete control
[19] = Preemergence, Rate 62 g/ha, scale 0 to 10, 0 is no effect, 10 is complete control
[20] = Preemergence, Rate 125 g/ha, scale 0 to 10 (0 no effect, 10 complete control)
[21] = Preemergence, Rate 250 g/ha, scale of 0 to 10 where 0 is no effect and 10 is complete control
[22] = Preemergence, Rate 500 g/ha, scale 0 (no effect) to 10 (complete control)
[23] = Rate 125 g/ha, Postemergence, scale 0 to 10, 0 no effect, 10 complete control
[24] = Rate 500 g/ha, Postemergence, 0 to 10 scale (0 no effect, 10 complete control)
[25] = Rate 125 g/ha, Postemergence section (flood test species), scale 0 to 10, 0 no effect, 10 complete control
[26] = flood test, listed under Postemergence, Rate 250 g/ha, scale 0 to 10, 0 no effect, 10 complete control

SMILES: Cc1ccccc1-n1c(=O)on(C(=O)N(c2ccc(F)cc2F)C(C)C)c1=O [Compound 25]
- Blackgrass plant response rating [1, 17]: 4
- Blackgrass plant response rating [1, 18]: 6
- Plant response rating, Blackgrass [1, 19]: 3
- Plant response rating, Blackgrass [1, 20]: 3
- Plant response rating, Blackgrass [1, 21]: 8
- Blackgrass plant response rating [1, 22]: 8
- Blackgrass plant response rating [1, 23]: 5
- Blackgrass plant response rating [1, 24]: 7
- Sugarbeets plant response rating [2, 17]: 0
- Sugarbeets plant response rating [2, 18]: 0
- Plant response rating, Sugarbeets [2, 19]: 0
- Plant response rating, Sugarbeets [2, 20]: 0
- Plant response rating, Sugarbeets [2, 21]: 0
- Sugarbeets plant response rating [2, 22]: 2
- Sugarbeets plant response rating [2, 23]: 0
- Wild oats plant response rating [3, 17]: 0
- Wild oats plant response rating [3, 18]: 1
- Plant response rating, Wild oats [3, 20]: 2
- Plant response rating, Wild oats [3, 21]: 6
- Wild oats plant response rating [3, 22]: 7
- Wild oats plant response rating [3, 23]: 0
- Soybean plant response rating [4, 17]: 2
- Soybean plant response rating [4, 18]: 3
- Plant response rating, Soybean [4, 19]: 0
- Plant response rating, Soybean [4, 20]: 0
- Plant response rating, Soybean [4, 21]: 0
- Soybean plant response rating [4, 22]: 0
- Soybean plant response rating [4, 23]: 3
- Velvetleaf plant response rating [5, 17]: 0
- Velvetleaf plant response rating [5, 18]: 0
- Plant response rating, Velvetleaf [5, 19]: 0
- Plant response rating, Velvetleaf [5, 20]: 0
- Plant response rating, Velvetleaf [5, 21]: 0
- Velvetleaf plant response rating [5, 22]: 0
- Velvetleaf plant response rating [5, 23]: 0
- Morningglory plant response rating [6, 17]: 1
- Morningglory plant response rating [6, 18]: 2
- Plant response rating, Morningglory [6, 19]: 0
- Plant response rating, Morningglory [6, 20]: 0
- Plant response rating, Morningglory [6, 21]: 0
- Morningglory plant response rating [6, 22]: 0
- Morningglory plant response rating [6, 23]: 1
- Morningglory plant response rating [6, 24]: 2
- Giant foxtail plant response rating [7, 17]: 3
- Giant foxtail plant response rating [7, 18]: 8
- Plant response rating, Giant foxtail [7, 19]: 5
- Plant response rating, Giant foxtail [7, 20]: 7
- Plant response rating, Giant foxtail [7, 21]: 10
- Giant foxtail plant response rating [7, 22]: 10
- Giant foxtail plant response rating [7, 23]: 5
- Giant foxtail plant response rating [7, 24]: 8
- Cocklebur plant response rating [8, 17]: 0
- Cocklebur plant response rating [8, 18]: 2
- Plant response rating, Cocklebur [8, 19]: 0
- Plant response rating, Cocklebur [8, 20]: 0
- Plant response rating, Cocklebur [8, 21]: 0
- Cocklebur plant response rating [8, 22]: 0
- Cocklebur plant response rating [8, 23]: 2
- Cocklebur plant response rating [8, 24]: 5
- B. signalgrass plant response rating [9, 17]: 0
- B. signalgrass plant response rating [9, 18]: 0
- Plant response rating, B. signalgrass [9, 19]: 0
- Plant response rating, B. signalgrass [9, 20]: 0
- Plant response rating, B. signalgrass [9, 21]: 7
- B. signalgrass plant response rating [9, 22]: 7
- B. signalgrass plant response rating [9, 23]: 0
- B. signalgrass plant response rating [9, 24]: 2
- Rice plant response rating [10, 17]: 0
- Rice plant response rating [10, 25]: 0
- Rice plant response rating ([10]; Rate 500 g/ha, Postemergence section of Table B, 0 to 10 scale (0 no effect, 10 complete control)): 3
- Rice plant response rating [10, 26]: 0
- Corn plant response rating [11, 17]: 0
- Corn plant response rating [11, 18]: 0
- Plant response rating, Corn [11, 19]: 0
- Plant response rating, Corn [11, 20]: 0
- Plant response rating, Corn [11, 21]: 0
- Corn plant response rating [11, 22]: 0
- Corn plant response rating [11, 23]: 0
- Corn plant response rating [11, 24]: 0
- Wheat plant response rating [12, 17]: 0
- Wheat plant response rating [12, 18]: 0
- Plant response rating, Wheat [12, 19]: 0
- Plant response rating, Wheat [12, 20]: 0
- Plant response rating, Wheat [12, 21]: 0
- Wheat plant response rating [12, 22]: 0
- Wheat plant response rating [12, 23]: 0
- Rape plant response rating [13, 17]: 0
- Rape plant response rating [13, 18]: 0
- Plant response rating, Rape [13, 19]: 0
- Plant response rating, Rape [13, 20]: 0
- Plant response rating, Rape [13, 21]: 0
- Rape plant response rating [13, 22]: 0
- Rape plant response rating [13, 23]: 0
- Rape plant response rating [13, 24]: 0
- Redroot pigweed plant response rating [14, 17]: 0
- Redroot pigweed plant response rating [14, 18]: 0
- Plant response rating, Redroot pigweed [14, 19]: 0
- Plant response rating, Redroot pigweed [14, 20]: 0
- Plant response rating, Redroot pigweed [14, 21]: 8
- Redroot pigweed plant response rating [14, 22]: 8
- Redroot pigweed plant response rating [14, 23]: 0
- Redroot pigweed plant response rating [14, 24]: 4
- S. Flatsedge plant response rating [15, 17]: 0
- S. Flatsedge plant response rating [15, 25]: 0
- S. Flatsedge plant response rating [15, 26]: 0
- Bedstraw plant response rating [16, 17]: 4
- Bedstraw plant response rating [16, 18]: 7
- Plant response rating, Bedstraw [16, 19]: 0
- Plant response rating, Bedstraw [16, 20]: 0
- Plant response rating, Bedstraw [16, 21]: 0
- Bedstraw plant response rating [16, 22]: 3
- Bedstraw plant response rating [16, 23]: 4
- Bedstraw plant response rating [16, 24]: 7
